Laboratory results reported in ChEMBL document CHEMBL3045361, “Novel GABA-AT inhibitors: QSAR and docking based virtual screening of phenyl substituted -phenyl ethylidene hydrazine analogues” (Med Chem Res, 2011).

The compounds below were run against 4-aminobutyrate aminotransferase, mitochondrial (Homo sapiens) (UniProt P80404) (assay: Inhibition of GABA-AT (unknown origin)). Details: concentration not given here.
4-aminobutyrate aminotransferase, mitochondrial (Homo sapiens), sequence (P80404 whole entry): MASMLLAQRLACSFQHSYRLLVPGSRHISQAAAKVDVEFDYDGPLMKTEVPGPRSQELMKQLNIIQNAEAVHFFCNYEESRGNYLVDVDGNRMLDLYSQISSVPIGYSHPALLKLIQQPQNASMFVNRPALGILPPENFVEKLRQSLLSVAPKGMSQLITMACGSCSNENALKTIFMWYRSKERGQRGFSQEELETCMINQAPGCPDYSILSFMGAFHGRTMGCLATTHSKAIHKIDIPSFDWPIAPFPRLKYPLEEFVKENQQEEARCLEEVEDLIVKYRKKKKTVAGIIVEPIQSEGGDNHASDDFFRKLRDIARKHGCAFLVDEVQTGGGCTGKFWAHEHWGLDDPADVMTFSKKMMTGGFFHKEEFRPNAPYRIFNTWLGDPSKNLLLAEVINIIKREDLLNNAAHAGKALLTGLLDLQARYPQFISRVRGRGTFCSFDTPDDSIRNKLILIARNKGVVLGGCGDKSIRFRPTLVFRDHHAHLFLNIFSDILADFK
Set-up: concentration or dose not given beside the values
In the case of `N/N=C/Cc1ccc(Cl)cc1`, the inhibition is reported as 54.2%.
Work on `COc1cccc(C/C=N/N)c1` yielded an inhibition of 77.6%.
For `COc1ccccc1C/C=N/N`, the inhibition was 60.1%.
In the case of `N/N=C/Cc1ccc(F)cc1`, the inhibition is reported as 61.6%.
For `Cc1cccc(C/C=N/N)c1`, the inhibition was 75.4%.
Work on `Cc1ccc(C/C=N/N)cc1` yielded an inhibition of 70.4%.
With `N/N=C/Cc1ccc(C(F)(F)F)cc1` the inhibition was 33.2%.
`N/N=C/Cc1cccc(Cl)c1` showed an inhibition of 74.9%.
In the case of `N/N=C/Cc1ccccc1F`, the inhibition is reported as 62.9%.
With `N/N=C/Cc1ccccc1` the inhibition was 75.4%.
In the case of `N/N=C/Cc1ccc(Cl)cc1Cl`, the inhibition is reported as 59%.
`N/N=C/Cc1cccc(F)c1` was tested, and the inhibition was 72.5%.
`N/N=C/Cc1cccc(C(F)(F)F)c1` showed an inhibition of 76%.
`N/N=C/Cc1ccccc1C(F)(F)F` was tested, and the inhibition was 46.3%.
Compound `COc1ccc(C/C=N/N)cc1` has an inhibition of 66.6%.
`Cc1ccccc1C/C=N/N` showed an inhibition of 51.3%.
`N/N=C/Cc1ccccc1Cl` showed an inhibition of 56.1%.
